# Test results published in US20180200263A1, “TOPICAL TREATMENT REGIMENS CONTAINING A PROSTAGLANDIN F2a ANALOG AND A TOPICAL STEROID” (priority 2015, published 2018).
# System: subjects with vitiligo (depigmented areas on neck, trunk and extremities)
# Assay: Efficacy and safety study in vitiligo, blinded investigator evaluation on a score of 0 to 7
# Type: in vivo
# Settings: share of the subjects in the group; after the 20 week topical treatment regimen was completed; nonfacial areas
# Description: An efficacy and safety study was conducted to compare the effects of bimatoprost monotherapy, mometasone monotherapy, and the combination of bimatoprost and mometasone. 18 randomized subjects completed the 20 week study, five coming in each of the bimatoprost monotherapy and mometasone monotherapy groups with the other eight coming in the bimatoprost/mometasone combination group. Subjects with vitiligo applied the corresponding drug(s) to depigmented areas on their neck, truck, and extremities. Per FDA request, facial areas where not treated during the study. For the bimatoprost monotherapy group, subjects were instructed to administer bimatoprost twice daily (morning and evening) for all 20 weeks. For the mometasone monotherapy group, subjects were instructed to administer mometasone once daily in the morning for weeks 1-12 and 17-20. Placebo (Cetaphil) was instructed to be administered in the morning for weeks 13-16 and in the evening for all 20 weeks. For the bimatoprost/mometasone combination group, subjects were instructed to administer mometasone once daily in the morning for weeks 1-12 and 17-20 and placebo was administered in the morning for weeks 13-16. Subjects were instructed to administer bimatoprost once daily evening for all 20 weeks. Subjects in either the bimatoprost monotherapy group or the bimatoprost/mometasone combination group the subjects were instructed to administer bimatoprost in the form of a 0.03 wt. % solution which was to be applied in a dose of 1 to 2 drops per 2 cm^2 body surface area. Subjects in either the mometasone monotherapy group or the bimatoprost/mometasone combination group the subjects were instructed to administer mometasone in the form of 0.1 wt. % mometasone furoate cream which was to be applied in a dose of 1 to 2 pea-sized quantities per anatomic area. The subjects were blind as to which group they were in and therefore which drug(s) they were administering. During the study period, the subjects were periodically evaluated by an investigator. The investigators evaluated the subjects on a score of 0 to 7 with 0 meaning that the subject's condition was worse, 1 being unchanged, 2 being slight improvement (approximately 10% improvement), 3 being mild improvement (approximately 10 to 25% improvement), 4 being moderate improvement (approximately 25 to 50% improvement), 5 being marked improvement (approximately 50 to 75% improvement), 6 being almost cleared (approximately 75 to 99% improvement), 7 being cleared (100% improvement). Like the subjects, the investigators were blind as to which group the subjects they were evaluating were in and therefore which drug(s) they were evaluating were administering.
SMILES,"subjects with mild improvement (score 3, approximately 10 to 25% improvement) [%]","subjects with moderate improvement (score 4, approximately 25 to 50% improvement) [%]","subjects with slight improvement (score 2, approximately 10% improvement) [%]"
"CCNC(=O)CCC/C=C\C[C@@H]1[C@@H](/C=C/[C@@H](O)CCc2ccccc2)[C@H](O)C[C@@H]1O [bimatoprost, Bimatoprost]",60,40,–
"C[C@@H]1C[C@H]2[C@@H]3CCC4=CC(=O)C=C[C@]4(C)[C@@]3(Cl)[C@@H](O)C[C@]2(C)[C@@]1(OC(=O)c1ccco1)C(=O)CCl [mometasone, mometasone furoate]",40,–,60
